Data as given in the NIST ThermoML archive (doi:10.1021/je050358g).

Conditions: Liquid, vibrating tube

CCCCCCCCCCCCCC[P+](CCCCCC)(CCCCCC)CCCCCC.O=S(=O)([N-]S(=O)(=O)C(F)(F)F)C(F)(F)F
mass density [kg/m3]
Conditions	298.15 K	303.25 K	308.15 K	318.27 K	323.33 K	328.39 K	333.43 K
210 kPa	1066.62	1062.61	1058.87	1051.54	1047.84	1044.49	1041.15
540 kPa	1066.84	1062.85	1059.07	1051.79	1048.07	1044.74	1041.43
1000 kPa	1067.13	1063.14	1059.37	1052.1	1048.38	1045.08	1041.76
3000 kPa	1068.44	1064.47	1060.76	1053.49	1049.81	1046.53	1043.19
5010 kPa	1069.7	1065.77	1062.11	1054.88	1051.24	1047.96	1044.61
7500 kPa	1071.3	1067.39	1063.74	1056.54	1052.94	1049.68	1046.4
9990 kPa	1072.85	1068.97	1065.36	1058.2	1054.64	1051.4	1048.13
15010 kPa	1075.88	1072.09	1068.53	1061.47	1057.95	1054.74	1051.51
19990 kPa	1078.82	1075.07	1071.57	1064.6	1061.14	1057.9	1054.8
25010 kPa	1081.69	1078	1074.54	1067.62	1064.22	1061.01	1057.94
29990 kPa	1084.45	1080.84	1077.42	1070.51	1067.21	1064.03	1060.97
35010 kPa	1087.15	1083.56	1080.23	1073.32	1070.14	1066.99	1063.96
40000 kPa	1089.79	1086.26	1082.95	1076.09	1072.99	1069.88	1066.84
45010 kPa	1092.36	1088.87	1085.64	1078.77	1075.75	1072.64	1069.67
50000 kPa	1094.88	1091.44	1088.25	1081.37	1078.47	1075.39	1072.43
55010 kPa	1097.34	1093.95	1090.8	1084	1081.14	1078.08	1075.17
59990 kPa	1099.74	1096.39	1093.3	1086.5	1083.74	1080.67	1077.73
65010 kPa	1102.11	1098.81	1095.75	1088.91	1086.3	1083.24	1080.29

CC(=O)[O-].CCCCCCCCCCCCCC[P+](CCCCCC)(CCCCCC)CCCCCC [trihexyl(tetradecyl)phosphonium acetate]
mass density [kg/m3]
Conditions	298.15 K	303.15 K	307.97 K	313.07 K	317.74 K	323.96 K	329.14 K	334.11 K
210 kPa	890.6	887.54	884.7	881.57	878.87	875.25	872.15	869.21
540 kPa	890.77	887.71	884.86	881.77	879.06	875.43	872.35	869.41
1000 kPa	891.01	887.96	885.13	882.02	879.32	875.7	872.61	869.67
3000 kPa	892.04	889.03	886.22	883.14	880.46	876.87	873.78	870.81
5010 kPa	893.09	890.08	887.29	884.26	881.6	878	874.92	871.98
7500 kPa	894.35	891.38	888.6	885.61	882.99	879.4	876.33	873.42
9990 kPa	895.56	892.64	889.9	886.96	884.32	880.77	877.71	874.78
15010 kPa	897.96	895.15	892.45	889.57	886.95	883.42	880.41	877.5
19990 kPa	900.29	897.52	894.88	892.06	889.47	885.99	883	880.11
25010 kPa	902.57	899.86	897.23	894.49	891.91	888.48	885.53	882.67
29990 kPa	904.74	902.08	899.51	896.77	894.26	890.86	887.95	885.12
35010 kPa	906.9	904.28	901.72	899.05	896.54	893.19	890.32	887.57
40020 kPa	908.99	906.41	903.88	901.21	898.76	895.47	892.64	889.93
45010 kPa	911.02	908.45	905.95	903.32	900.88	897.65	894.88	892.22
49990 kPa	912.98	910.44	907.95	905.38	902.96	899.78	897.06	894.45
55000 kPa	914.91	912.4	909.92	907.36	904.98	901.85	899.19	896.66
59990 kPa	916.81	914.31	911.84	909.27	906.93	903.86	901.27	898.81
65010 kPa	918.66	916.16	913.69	911.16	908.84	905.84	903.3	900.91
